Converted amounts (≈) assume the structure as drawn.
Columns and labels:
[1] = solubility of substrates in MSB buffer; format: physicochemical
Description: (§1) Two significant parameters of each substrate tested were toxicity and water solubility. The combined effects of those parameters will influence the maximum rate of biotransformation by the microbial culture. Methods were developed to examine the effects of substrate concentration on the rate of biotransformation and cell growth. The rates of biotransformation were apparently independent of the substrates' water solubility. For example, the solubilities of bromobenzene, acetophenone, and 1-phenyl-1,2-ethanediol in MSB buffer (at 30° C.) are approximately 400 mg/liter, 2000 mg/liter, and 5000 mg/liter, respectively. Bromobenzene, one of the least water-soluble substrates tested, was transformed to its dihydrodiol by strain F39/D at an average rate of about 20 mg/liter/hour. […] Substrate toxicity was determined by examining the growth rate of strain F39/D in the presence of the test compounds.

[2] = system: Pseudomonas putida strain F39/D; assay: substrate toxicity: growth of strain F39/D in the presence of the test compounds; format: cell-based
Description: as §1

[3] = system: Pseudomonas putida strain F39/D; assay: rate of biotransformation of substrate to its dihydrodiol by strain F39/D; format: cell-based
Description: as §1
Biotransformation preferably involves the addition of the starting substrate to an induced microbial cell suspension. The microorganisms are then allowed to grow such that the enzyme, arene 2,3-dioxygenase may act on the substrate. The induced microorganisms are prepared as described above. […]

Compound	solubility in MSB buffer ([1]; msb buffer) [mg/mL]	growth of the microbes ([2]; 1000 mg/l (one-half saturated level))	growth of the microbes ([2]; 400 mg/l (saturated level))	solubility in MSB buffer ([1]; MSB buffer, 30° C.)	average rate of transformation to its dihydrodiol [3]	rate of transformation compared with acetophenone or 1-phenylethanediol ([3]; relative to acetophenone or 1-phenylethanediol transformation)
OCC(O)c1ccccc1 (stereo not shown) [1-phenyl-1,2-ethanediol]	~5 (≈ 36.2 mM)	–	–	–	–	–
CC(=O)c1ccccc1 [acetophenone]	~2 (≈ 16.6 mM)	completely inhibited	–	–	–	–
Brc1ccccc1 [bromobenzene]	–	–	apparently unaffected	approximately 400 mg/liter	about 20 mg/liter/hour	much greater than that of acetophenone or 1-phenylethanediol transformation
